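96-well plates; 48 h exposure; 5 concentrations. Endpoints by linear interpolation between flanking doses. Not reached: highest tested concentration assigned. GI50 = concentration required for 50% inhibition of growth.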 Active and inactive are the calls of the source. Cut-off read from the data, not from the text of the source: active = GI50 up to about 1.1 µM and inactive = higher.
Legend:
Assay in all cases: NCI tumour cell line growth inhibition, 48 h
CCRF-CEM = tested on: CCRF-CEM
LOX IMVI = tested on: LOX IMVI
SK-MEL-28 = tested on: SK-MEL-28
SF-295 = tested on: SF-295
OVCAR-8 = tested on: OVCAR-8
KM12 = tested on: KM12
K562 = tested on: K562
HL-60 = tested on: HL-60
Malme-3M = tested on: Malme-3M
HOP-92 = tested on: HOP-92
NCI-H522 = tested on: NCI-H522
UACC-62 = tested on: UACC-62
A498 = tested on: A498
SNB-75 = tested on: SNB-75
ACHN = tested on: ACHN
COLO 205 = tested on: COLO 205
SR = tested on: SR

Compound | GI50 (CCRF-CEM) | GI50 (LOX IMVI) | GI50 (SK-MEL-28) | GI50 (SF-295) | GI50 (OVCAR-8) | GI50 (KM12) | GI50 (K562) | GI50 (HL-60) | GI50 (Malme-3M) | GI50 (HOP-92) | GI50 (NCI-H522) | GI50 (UACC-62) | GI50 (A498) | GI50 (SNB-75) | GI50 (ACHN) | GI50 (COLO 205) | GI50 (SR)
O=Cc1c(O)c(C(=O)Nc2ccc3[nH]c(=O)[nH]c3c2)cc2ccccc12 | > 100 µM (inactive) | > 100 µM (inactive) | > 100 µM (inactive) | > 100 µM (inactive) | > 100 µM (inactive) | > 100 µM (inactive) | > 100 µM (inactive) | > 100 µM (inactive) | > 100 µM (inactive) | > 100 µM (inactive) | > 100 µM (inactive) | > 100 µM (inactive) | > 100 µM (inactive) | > 100 µM (inactive) | > 100 µM (inactive) | > 100 µM (inactive) | –
CCOC(=O)C(=O)Nc1c(C)cccc1C(C)(C)C | – | > 100 µM (inactive) | > 100 µM (inactive) | > 100 µM (inactive) | > 100 µM (inactive) | > 100 µM (inactive) | > 100 µM (inactive) | – | > 100 µM (inactive) | > 100 µM (inactive) | > 100 µM (inactive) | > 100 µM (inactive) | – | 49.1 µM (inactive) | > 100 µM (inactive) | > 100 µM (inactive) | –
O=C(c1ccc(Cl)cc1)c1ccc(OCCSCCCCCCCCCCSCCOc2ccc(C(=O)c3ccc(Cl)cc3)cc2)cc1 | > 100 µM (inactive) | > 100 µM (inactive) | > 100 µM (inactive) | 91.8 µM (inactive) | > 100 µM (inactive) | > 100 µM (inactive) | > 100 µM (inactive) | > 100 µM (inactive) | > 100 µM (inactive) | > 100 µM (inactive) | > 100 µM (inactive) | > 100 µM (inactive) | > 100 µM (inactive) | > 100 µM (inactive) | > 100 µM (inactive) | > 100 µM (inactive) | –
COc1ccc(-c2oc(/C=N/NC(N)=S)c([N+](=O)[O-])c2-c2ccc(OC)c(OC)c2)cc1OC | > 10 µM (inactive) | 15.9 µM (inactive) | 23.9 µM (inactive) | 20.7 µM (inactive) | 23.9 µM (inactive) | – | > 10 µM (inactive) | 21.7 µM (inactive) | 17.3 µM (inactive) | 24.2 µM (inactive) | 23.6 µM (inactive) | 20.1 µM (inactive) | – | 18 µM (inactive) | 18.5 µM (inactive) | > 100 µM (inactive) | –
COc1cc(C(=O)C/C(CCCC(=O)Nc2ccccc2[N+](=O)[O-])=N/NC(=O)c2cc3ccccc3cc2O)ccc1O | 8 µM (inactive) | 23.9 µM (inactive) | 58.2 µM (inactive) | 44.4 µM (inactive) | 26.8 µM (inactive) | 24.5 µM (inactive) | 20.2 µM (inactive) | 0.556 µM (active) | 29.2 µM (inactive) | 32.7 µM (inactive) | 36.6 µM (inactive) | 17.6 µM (inactive) | > 100 µM (inactive) | > 91.2 µM (inactive) | 28.9 µM (inactive) | 21.7 µM (inactive) | –
CCCCn1c(-c2ccccc2)cs/c1=N\NC(=O)Cn1c(C)nc2ccccc21 | 17.9 µM (inactive) | 32.6 µM (inactive) | – | 33.5 µM (inactive) | > 100 µM (inactive) | 70.8 µM (inactive) | 14.5 µM (inactive) | 14.4 µM (inactive) | 35.7 µM (inactive) | – | 30.2 µM (inactive) | 58.6 µM (inactive) | > 100 µM (inactive) | 60.1 µM (inactive) | 75.9 µM (inactive) | 17.1 µM (inactive) | 11.5 µM (inactive)
Cc1ccc(NC(=O)C(=O)C(C(=O)c2ccc3ccccc3c2)C2OC(=O)c3ccccc32)c(C)c1 (stereo not drawn) | 8.55 µM (inactive) | 10.6 µM (inactive) | 5.69 µM (inactive) | – | 7.67 µM (inactive) | 16.4 µM (inactive) | 10.4 µM (inactive) | – | 8.99 µM (inactive) | 7.03 µM (inactive) | 12.8 µM (inactive) | 4.54 µM (inactive) | 6.1 µM (inactive) | 9.14 µM (inactive) | 23.6 µM (inactive) | 11.1 µM (inactive) | –
COc1ccc(C(=O)C(CO)Oc2ccccc2OC)cc1OC (stereo not drawn) | > 100 µM (inactive) | > 100 µM (inactive) | > 100 µM (inactive) | > 100 µM (inactive) | > 100 µM (inactive) | > 100 µM (inactive) | > 100 µM (inactive) | > 100 µM (inactive) | > 100 µM (inactive) | – | 91 µM (inactive) | > 100 µM (inactive) | > 100 µM (inactive) | > 100 µM (inactive) | > 100 µM (inactive) | > 100 µM (inactive) | –
C=C1C(=O)OC2CCCCC3OC3C12 (stereo not drawn) | 3.04 µM (inactive) | 15.8 µM (inactive) | 10.9 µM (inactive) | 23.2 µM (inactive) | 15.9 µM (inactive) | 16.6 µM (inactive) | 12.3 µM (inactive) | 2.79 µM (inactive) | 10.7 µM (inactive) | – | 1.87 µM (inactive) | 3.56 µM (inactive) | 15.3 µM (inactive) | 20.4 µM (inactive) | 11 µM (inactive) | 3.23 µM (inactive) | 23 µM (inactive)
COc1cc(C(=O)C/C(CCC(=O)Nc2ccc(Cl)cc2C)=N/NC(=O)C(N)=O)ccc1O | > 100 µM (inactive) | > 100 µM (inactive) | – | > 100 µM (inactive) | > 100 µM (inactive) | > 100 µM (inactive) | > 100 µM (inactive) | > 100 µM (inactive) | > 100 µM (inactive) | > 100 µM (inactive) | > 100 µM (inactive) | > 100 µM (inactive) | > 100 µM (inactive) | – | > 100 µM (inactive) | > 100 µM (inactive) | –
C=C(C)C12CC3CC(/C(=N/O)C(C1)/C3=N\O)[C@@]2(C)O (stereo partly drawn) | > 100 µM (inactive) | > 100 µM (inactive) | > 100 µM (inactive) | > 100 µM (inactive) | > 100 µM (inactive) | – | > 100 µM (inactive) | > 100 µM (inactive) | > 100 µM (inactive) | – | > 100 µM (inactive) | > 100 µM (inactive) | – | 93.8 µM (inactive) | > 100 µM (inactive) | > 100 µM (inactive) | > 100 µM (inactive)
COc1ccc2c3c(c(C(=O)c4ccccc4)oc13)CCC2 | > 100 µM (inactive) | > 100 µM (inactive) | > 100 µM (inactive) | > 100 µM (inactive) | > 100 µM (inactive) | – | > 100 µM (inactive) | > 100 µM (inactive) | – | < 0.01 µM (active) | – | > 100 µM (inactive) | > 100 µM (inactive) | 81.5 µM (inactive) | > 100 µM (inactive) | > 100 µM (inactive) | –
CCOC(=O)c1cccc(=O)c(C(=O)OCC)c1 | 27.2 µM (inactive) | – | 38.6 µM (inactive) | 2.38 µM (inactive) | 43.4 µM (inactive) | 3.27 µM (inactive) | 36.1 µM (inactive) | 26.6 µM (inactive) | 66.1 µM (inactive) | – | – | 34 µM (inactive) | > 100 µM (inactive) | 56.9 µM (inactive) | 63.7 µM (inactive) | – | –
